Test results from ChEMBL document CHEMBL4627382, “Iheyamides A-C, Antitrypanosomal Linear Peptides Isolated from a Marine Dapis sp. Cyanobacterium” (J Nat Prod, 2020).

Tests used:
[1] = test system: WI-38; assay: Cytotoxicity against human WI38 cells incubated for 72 hrs by MTT assay; format: cell-based; details: WI-38, 72 h
[2] = test system: Trypanosoma brucei brucei; assay: Antitrypanosomal activity against Trypanosoma brucei brucei 221 incubated for 69 hrs by AlamarBlue assay; format: functional, organism-based; details: Trypanosoma brucei, 221, 69 h
[3] = test system: Trypanosoma brucei rhodesiense; assay: Antitrypanosomal activity against Trypanosoma brucei rhodesiense IL-1501 incubated for 69 hrs by AlamarBlue assay; format: functional, organism-based; details: IL-1501, 69 h
[4] = Selectivity ratio of IC50 for human WI38 cells to IC50 for Trypanosoma brucei brucei 221; format: toxicity; details: read-out: Ratio IC50
[5] = Selectivity ratio of IC50 for human WI38 cells to IC50 for Trypanosoma brucei rhodesiense IL-1501; format: toxicity; details: read-out: Ratio IC50

In the case of `CC[C@@H](C)[C@H](C(=O)O)N(C)C(=O)[C@@H]1CCCN1C(=O)[C@H](C(C)C)N(C)C(=O)[C@@H](Cc1ccccc1)NC(=O)[C@H](Cc1ccccc1)N(C)C`, the IC50 [1] is reported as over 20 µM, the IC50 [2] is reported as over 20 µM and the IC50 [3] is reported as over 20 µM.
Molecule `CC[C@@H](C)[C@H](C(=O)N1CCC[C@H]1C(=O)N1C(=O)C=C(OC)[C@@H]1C(C)C)N(C)C(=O)[C@@H]1CCCN1C(=O)[C@H](C(C)C)N(C)C(=O)[C@@H](Cc1ccccc1)NC(=O)[C@H](Cc1ccccc1)N(C)C` has an IC50 [1] of 18 µM, an IC50 [2] of 1.5 µM and a selectivity ratio [4] of over 10. The selectivity ratio [5] was over 10 and the IC50 [3] was 1.5 µM.
Molecule `CC[C@@H](C)[C@H](C(=O)N1CCC[C@H]1C(=O)O)N(C)C(=O)[C@@H]1CCCN1C(=O)[C@H](C(C)C)N(C)C(=O)[C@@H](Cc1ccccc1)NC(=O)[C@H](Cc1ccccc1)N(C)C` has an IC50 [1] of over 20 µM, an IC50 [2] of over 20 µM and an IC50 [3] of over 20 µM.
